Test results: US11400081B2, “Compounds” (The University of Sheffield, priority 2017, dated 2022)

molecular target: T1, AM2 receptor (CALCRL+RAMP3) (Homo sapiens, UniProt O60896+Q16602); experiment: AM2 receptor inhibition, LANCE TR-FRET cAMP agonist-antagonist competition assay; assay type: cell-based; details: inhibition of AM induced cAMP activation; 1321N1 cells transfected with CALCRL+RAMP3; read-out: AM2 pIC50 (converted)
T1 construct: host or cells: 1321N1
Description: Compounds were assessed for their ability to inhibit ligand-induced elevations of cAMP, using the Perkin Elmer LANCE cAMP assay using commercially-available cells expressing a specific receptor of interest using the following general procedure:
Compounds were prepared in dimethyl sulfoxide (DMSO—99.9% pure) (Sigma Aldrich, Cat #: D4540) added to powder stocks to produce a 20 mM solution (100% DMSO) that was sonicated at 37° C. for 10 minutes to fully dissolve the compounds. The 20 mM stocks were diluted further in DMSO to produce a 2 mM solution that was sonicated at 37° C. for 10 minutes. 2 mM stocks were dissolved in assay/stimulation buffer to produce a 400 μM solution that was sonicated at 37° C. for 10 minutes for all cAMP assays. All stocks were stored at −20° C. Then serial dilution (Dilution factor 10) was performed to achieve the desire experimental concentrations.
Competition assays were performed according to the manufactures instructions using LANCE® TR-FRET cAMP assay kit (Perkin Elmer, Cat #: AD0264). Serial dilutions (3 μl/well) of the molecules were plated in a 384-well OptiPlate (Perkin Elmer, Cat #: 6007299) in duplicates. Appropriate controls (100% stimulation: Forskolin and 0% stimulation: Vehicle control) (6 μl/well) were included in each plate for data normalization. Following the compound addition, 6 μl of G-protein coupled receptor overexpressing cells/Alexa Fluor antibody solution (1:100 dilution) was added in each well at a desired density of 2500 cells/well. The overexpressing cell lines were purchased from DiscoveRx, Birmingham, UK. After spinning the plate at 1000 rpm for 1 minute and vortexing briefly, the cells were pre-incubated with the compounds for 30 minutes at room temperature (covered). Then 3 μl of the equivalent peptide ligand (EC50 dose) was added to all the wells except vehicle and forskolin controls. The plate were then spun down at 1000 rpm for 1 minute and once finished they were vortexed briefly and covered. Cells were stimulated in the presence of the ligands for 15 minutes at room temperature. After stimulation 12 μl of detection mix (Europium-Chelate streptavidin/biotinylated cAMP tracer solution) was added to all wells and incubated for 60 minutes at room temperature. The plate was then read on the Enspire multimode Plate reader (Perkin Elmer), at; 320/340 nm excitation and 615/665 nm emission was recorded.
• 28 mL Hank's Balanced salt solution (+MgCl2, +CaCl2)—(Thermo Fisher Cat #:14170112) • 150 μl HEPES (1M)—(Thermo Fisher Cat #:15630080) • 400 μl Stabilizer (DTPA) Purified BSA (7.5%)—(Perkin Elmer, Cat #: CR84-100) • 60 μl IBMX (250 mM)—(Sigma Aldrich, Cat #: 15879) Specific cAMP/Agonist-Antagonist Competition Assays
The ability of a compound to inhibit the AM induced cAMP activation in AM2 receptor-expressing cells (1321N1 cells transfected with CALCRL+RAMP3, sourced from DiscoverX catalogue number 95-0169C6) was assessed using the protocol above.

T1 sequence (Q16602 23-461): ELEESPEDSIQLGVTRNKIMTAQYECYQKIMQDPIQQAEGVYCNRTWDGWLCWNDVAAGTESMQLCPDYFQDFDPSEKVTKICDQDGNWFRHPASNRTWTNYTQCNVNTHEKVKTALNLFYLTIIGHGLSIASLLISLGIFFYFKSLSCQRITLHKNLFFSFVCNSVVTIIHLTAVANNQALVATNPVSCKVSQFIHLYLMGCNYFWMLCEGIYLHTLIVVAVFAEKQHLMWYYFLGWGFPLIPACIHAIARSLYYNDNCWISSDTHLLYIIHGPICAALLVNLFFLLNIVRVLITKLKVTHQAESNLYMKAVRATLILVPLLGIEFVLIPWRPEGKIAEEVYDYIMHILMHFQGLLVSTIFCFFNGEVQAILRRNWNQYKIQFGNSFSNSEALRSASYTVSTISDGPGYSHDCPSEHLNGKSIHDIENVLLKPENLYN
T1 sequence (O60896 24-148): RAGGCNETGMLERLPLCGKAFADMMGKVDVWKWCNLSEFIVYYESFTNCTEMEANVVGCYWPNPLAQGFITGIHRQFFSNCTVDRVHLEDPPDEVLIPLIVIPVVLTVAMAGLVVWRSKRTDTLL

Structure (SMILES)	IC50 [nM]
CNCc1ccccc1CN(CC(=O)Nc1ccc2c(c1)C[C@@]1(C2)C(=O)Nc2ncccc21)C(=O)C12CC3CC(CC(C3)C1)C2 [Example 92, N-[[2-(methylaminomethyl)phenyl]methyl]-N-[2-oxo-2-[[(3R)-2-oxospiro[1H-pyrrolo[2,3-b]pyridine-3,2′-indane]-5′-yl]amino]ethyl]adamantane-1-carboxamide 2,2,2-trifluoroacetate]	79.4
CNCc1ccccc1CN(CC(=O)Nc1ccc2c(c1)CC1(C2)C(=O)Nc2ncccc21)C(=O)C1CCCC1 (centres unmarked) [Example 65, N-(2-((methylamino)methyl)benzyl)-N-(2-oxo-2-((2′-oxo-1,1′,2′,3-tetrahydrospiro[indene-2,3′-pyrrolo[2,3-b]pyridin]-5-yl)amino)ethyl)cyclopentanecarboxamide]	2.82
O=C(CN(Cc1ccccc1CN1CCC1)C(=O)C1CC1)Nc1ccc2c(c1)CC1(C2)C(=O)Nc2ncccc21 (centres unmarked) [Example 49, N-(2-(Azetidin-1-ylmethyl)benzyl)-N-(2-oxo-2-((2′-oxo-1,1′,2′,3-tetrahydrospiro[indene-2,3′-pyrrolo[2,3-b]pyridin]-5-yl)amino)ethyl)cyclopropanecarboxamide]	10.2
CNCc1ccccc1CN(CC(=O)Nc1ccc2c(c1)CC1(C2)C(=O)Nc2ncccc21)C(=O)N1CCC2(CCNCC2)CC1 (centres unmarked) [Example 89, N-(2-((Methylamino)methyl)benzyl)-N-(2-oxo-2-((2′-oxo-1,1′,2′,3-tetrahydrospiro[indene-2,3′-pyrrolo[2,3-b]pyridin]-5-yl)amino)ethyl)-3,9-diazaspiro[5.5]undecane-3-carboxamide]	87.1
Cc1cc2c(cc1NC(=O)CN(Cc1ccccc1CN)C(=O)C(C)(C)C)CC1(C2)C(=O)Nc2ncccc21 (centres unmarked) [Example 39, N-(2-(Aminomethyl)benzyl)-N-(2-((5-methyl-2′-oxo-1,1′,2,3-tetrahydrospiro[indene-2,3′-pyrrolo[2,3-b]pyridin]-6-yl)amino)-2-oxoethyl)pivalamide]	15.5
C=CCN(CC=C)CCc1ccccc1CN(CC(=O)Nc1ccc2c(c1)CC1(C2)C(=O)Nc2ncccc21)C(=O)C(C)(C)C (centres unmarked) [Example 28, N-(2-(2-(Diallylamino)ethyl)benzyl)-N-(2-oxo-2-((2′-oxo-1,1′,2′,3-tetrahydrospiro[indene-2,3′-pyrrolo[2,3-b]pyridin]-5-yl)amino)ethyl)pivalamide]	490
CC(C)(C)C(=O)N(CC(=O)Nc1ccc2c(c1)CC1(C2)C(=O)Nc2ncccc21)Cc1ccccc1CNC1CCC1 (centres unmarked) [Example 20, N-(2-((Cyclobutylamino)methyl)benzyl)-N-(2-oxo-2-((2′-oxo-1,1′,2′,3-tetrahydrospiro[indene-2,3′-pyrrolo[2,3-b]pyridin]-5-yl)amino)ethyl)pivalamide]	105
CC(C)(C)C(=O)N(CC(=O)Nc1ccc2c(c1)CC1(C2)C(=O)Nc2ncccc21)Cc1ccccc1CNCCO (centres unmarked) [Example 13, N-(2-(((2-Hydroxyethyl)amino)methyl)benzyl)-N-(2-oxo-2-((2′-oxo-1,1′,2′,3-tetrahydrospiro[indene-2,3′-pyrrolo[2,3-b]pyridin]-5-yl)amino)ethyl)pivalamide]	33.1
CNCc1ccccc1CN(CC(=O)Nc1ccc2c(c1)C[C@@]1(C2)C(=O)Nc2ncccc21)C(=O)C12CC(NC(C)=O)(C1)C2 [Example 100, 3-Acetamido-N-[[2-(methylaminomethyl)phenyl]methyl]-N-[2-oxo-2-[[(3R)-2-oxospiro[1H-pyrrolo[2,3-b]pyridine-3,2′-indane]-5′-yl]amino]ethyl]bicyclo[1.1.1]pentane-1-carboxamide 2,2,2-trifluoroacetate]	309
CNCc1ccccc1CN(CC(=O)Nc1ccc2c(c1)CC1(C2)C(=O)Nc2ncccc21)C(=O)C1CCOC1 (centres unmarked) [Example 80, N-(2-((Methylamino)methyl)benzyl)-N-(2-oxo-2-((2′-oxo-1,1′,2′,3-tetrahydrospiro[indene-2,3′-pyrrolo[2,3-b]pyridin]-5-yl)amino)ethyl)tetrahydrofuran-3-carboxamide]	14.8
CC(C)(C)C(=O)N(CC(=O)Nc1ccc2c(c1)CC1(C2)C(=O)Nc2ncccc21)Cc1ccccc1CN1CCCC1 (centres unmarked) [Example 4, N-(2-Oxo-2-((2′-oxo-1,1′,2′,3-tetrahydrospiro[indene-2,3′-pyrrolo[2,3-b]pyridine]-5-yl)amino)ethyl)-N-(2-(pyrrolidin-1-ylmethyl)benzyl)pivalamide]	60.3
O=C(CN(Cc1ccccc1CN1CCC1)C(=O)c1ccccn1)Nc1ccc2c(c1)CC1(C2)C(=O)Nc2ncccc21 (centres unmarked) [Example 52, N-(2-(Azetidin-1-ylmethyl)benzyl)-N-(2-oxo-2-((2′-oxo-1,1′,2,3-tetrahydrospiro[indene-2,3′-pyrrolo[2,3-b]pyridin]-5-yl)amino)ethyl)picolinamide]	46.8
CNCc1ccccc1CN(CC(=O)Nc1cc2c(cc1C)CC1(C2)C(=O)Nc2ncccc21)C(=O)C(C)(C)C (centres unmarked) [Example 40, N-(2-((5-Methyl-2′-oxo-1,1′,2′,3-tetrahydrospiro[indene-2,3′-pyrrolo[2,3-b]pyridin]-6-yl)amino)-2-oxoethyl)-N-(2-((methylamino)methyl)benzyl)pivalamide]	7.41
CC(C)(C)OC(=O)N(CC(=O)Nc1ccc2c(c1)CC1(C2)C(=O)Nc2ncccc21)Cc1ccccc1CN1CCC1 (centres unmarked) [Example 44, tert-Butyl 2-(azetidin-1-ylmethyl)benzyl(2-oxo-2-((2′-oxo-1,1′,2′,3-tetrahydrospiro[indene-2,3′-pyrrolo[2,3-b]pyridin]-5-yl)amino)ethyl)carbamate]	74.1
CC(c1ccccc1CN(CC(=O)Nc1ccc2c(c1)CC1(C2)C(=O)Nc2ncccc21)C(=O)C(C)(C)C)N(C)C (centres unmarked) [Example 24, N-(2-(1-(Dimethylamino)ethyl)benzyl)-N-(2-oxo-2-((2′-oxo-1,1′,2′,3-tetrahydrospiro[indene-2,3′-pyrrolo[2,3-b]pyridin]-5-yl)amino)ethyl)pivalamide]	34.7
CNCc1ccccc1CN(CC(=O)Nc1ccc2c(c1)CC1(C2)C(=O)Nc2ncccc21)C(=O)C1(C(F)(F)F)CCC1 (centres unmarked) [Example 76, N-[[2-(methylaminomethyl)phenyl]methyl]-N-[2-oxo-2-[(2-oxospiro[1H-pyrrolo[2,3-b]pyridine-3,2′-indane]-5′-yl)amino]ethyl]-1-(trifluoromethyl)cyclobutanecarboxamide 2,2,2-trifluoroacetate]	1.35
CNCc1ccccc1CN(CC(=O)Nc1ccc2c(c1)CC1(C2)C(=O)Nc2ncccc21)C(=O)c1csc(C)n1 (centres unmarked) [Example 61, 2-Methyl-N-(2-((methylamino)methyl)benzyl)-N-(2-oxo-2-((2′-oxo-1,1′,2′,3-tetrahydrospiro[indene-2,3′-pyrrolo[2,3-b]pyridin]-5-yl)amino)ethyl)thiazole-4-carboxamide]	219
CNCc1cc(F)ccc1CN(CC(=O)Nc1ccc2c(c1)CC1(C2)C(=O)Nc2ncccc21)C(=O)C(C)(C)C (centres unmarked) [Example 55, N-(4-Fluoro-2-((methylamino)methyl)benzyl)-N-(2-oxo-2-((2′-oxo-1,1′,2′,3-tetrahydrospiro[indene-2,3′-pyrrolo[2,3-b]pyridin]-5-yl)amino)ethyl)pivalamide]	9.77
CNCc1ccccc1CN(CC(=O)Nc1ccc2c(c1)CC1(C2)C(=O)Nc2ncccc21)C(=O)NC(C)C (centres unmarked) [Example 84, 2-(3-Isopropyl-1-(2-((methylamino)methyl)benzyl)ureido)-N-(2′-oxo-1,1′,2′,3-tetrahydrospiro[indene-2,3′-pyrrolo[2,3-b]pyridin]-5-yl)acetamide]	52.5
CNCc1ccc(F)cc1CN(CC(=O)Nc1ccc2c(c1)CC1(C2)C(=O)Nc2ncccc21)C(=O)C(C)(C)C (centres unmarked) [Example 54, N-(5-Fluoro-2-((methylamino)methyl)benzyl)-N-(2-oxo-2-((2′-oxo-1,1′,2′,3-tetrahydrospiro[indene-2,3′-pyrrolo[2,3-b]pyridin]-5-yl)amino)ethyl)pivalamide]	3.55
